Test results: patent US9669104B2, “Nanocomplex containing amphipathic peptide useful for efficient transfection of biomolecules” (Council of Scientific and Industrial Research, priority 2012, dated 2017)
“Also recorded” adds a separate entry of the source.

What was measured:
[1] = tested on: CHO-K1 cells; assay: Cellular uptake of small RNA (Siglo) by flow cytometry; format: cell-based, Chinese hamster; details: Siglo non-covalently complexed; for small RNA delivery: charge ratio 5; for uptake of the small RNA (fluorescence positive cells): charge ratio 5, CHO-K1, 4 h
Method: (§1) The uptake of the small RNA, which is noncovalently complexed with the peptides, was almost 100% in CHO-K1 cells at charge ratio 5 for Mgpe-9 and Mgpe-10. Siglo was used as a model small RNA. This RNA was used to prepare the nanocomplexes with the peptide at charge ratio 5.0. Chinese hamster ovary cells (CHO-K1) were maintained in Ham's F-12K media supplemented with 10% (v/v) Fetal bovine serum (Life Technologies, USA); at 37° C. and 5% CO2 in humidified incubator. Cells were grown in 24 well plate which was seeded 24 h before use. At a confluency of 70-80% the cells were treated with labelled nanocomplexes for 4 h at 37° C. After incubation, the media was removed and cells were washed twice with PBS supplemented with heparin (1 mg/ml). The cells were then treated with trypsin (0.25%) for 5-10 min and harvested in complete media, pelleted down, washed with PBS, resuspended in PBS having 1% BSA and then analyzed on FACS-Calibur™ (Becton Dickinson, USA) using CellQuest. Pro software. The labelled nanocomplexes were excited using 488 nm laser and detected with 530/30 nm (FL1) band pass filter. In each case total 10,000 events were acquired. Percentage of fluorescence positive cells was plotted as bars and their mean intensity was plotted as a line.
as §1, with “Siglo” for “The uptake of the small RNA, which is noncovalently complexed with the peptides, was almost 100% in CHO-K1 cells at charge ratio 5 for Mgpe-9 and Mgpe-10. Siglo”, “RNA” for “RNA.”, “plates” for “plate”, “CellQuest” for “CellQuest.”, “line. The uptake of the small RNA, which is noncovalently complexed with the peptides, was almost 100% in CHO-K1 cells at charge ratio 5 for Mgpe-9 and Mgpe-10. […] Nanocomplex containing invented peptide can carry biomolecules in the range of 20 bp to 7 kbp size.” for “line.”

[2] = Size and zeta potential of nanocomplexes by DLS; format: physicochemical; details: nanocomplexes with DNA at charge ratio 10, DNA 25 ng/μl; for Size (nm): deionized water, 25° C.
Method: The mean hydrodynamic diameter and zeta potential of nanocomplexes prepared at charge 10.0 at 25 ng/μl of DNA concentration in deionized water were measured by Zeta sizer Nano ZS (Malvern Instruments, UK) at a fixed angle of 173° at 25° C. Minimum of 3 readings were recorded for each sample with replicates. As presented in Table-2 all the peptides were able to make nanocomplexes with DNA. The size of nanocomplexes was ranging from 50 to 110 nm and Zeta potential was ranging from 30 to 60 mV.
The mean hydrodynamic diameter and zeta potential of nanocomplex (Table 2) prepared at charge 10 at 25 ng/μl of DNA concentration in deionized water were measured by Zeta sizer Nano ZS (Malvern Instruments, UK) at a fixed angle of 173° at 25° C. Minimum of 3 readings were recorded for each sample with replicates. All five invented peptides were able to Make monodisperse nanocomplex with sizes ranging from 50 nm to 110 nm with DNA.

[3] = tested on: CHO-K1 cells; assay: Transfection in presence of 10% serum; format: cell-based, Chinese hamster; details: CHO-K1, charge ratio 20
[4] = tested on: A549; assay: Luciferase transfection efficiency in A549 cells; format: cell-based; details: A549, charge ratio 5
Source text: (§2) The transfection efficiency in terms of reporter gene expression has been checked using luciferase reporter assay. A plasmid (pMIR-Report™ Luciferase) containing luciferase gene was complexed with the peptide and transfected to the cell. The nanocomplexes were made at different charge ratios and transfected in a wide range of cell lines. CHO-K1 cells were maintained in Ham's F-12K media and MCF-7 and A549 cells in low glucose DMEM supplemented with 10% (v/v) Fetal bovine serum (Life Technologies, USA); at 37° C. and 5% CO2 in humidified incubator. Cells were seeded 24 h before transfection in 24-well plates. […] Luciferase expression was measured in 50 μl of cell lysate supernatant using the luciferase assay substrate (Promega). Light emission was measured by integration over 1 Os in Orion microplate luminometer (Berthold Detection System, Germany). […]
(§3) CHO-K1 cells were maintained in Ham's F-12K media and MCF-7 and A549 cells in low glucose DMEM supplemented with 10% (v/v) Fetal bovine serum (Life Technologies, USA); at 37° C. and 5% CO2 in humidified incubator. […] Luciferase expression was measured in 50 μl of cell lysate supernatant using the luciferase assay substrate (Promega). Light emission was measured by integration over 10 s in Orion micro plate luminometer (Berthold Detection System, Germany). […]

[5] = tested on: CHO-K1 cells; assay: Luciferase transfection efficiency in CHO-K1 cells; format: cell-based, Chinese hamster
Source text: The transfection efficiency in terms of reporter gene expression has been checked using luciferase reporter assay. A plasmid (pMIR-Report™ Luciferase) containing luciferase gene was complexed with the peptide and transfected to the cell. The nanocomplexes were made at different charge ratios and transfected in a wide range of cell lines. CHO-K1 cells were maintained in Ham's F-12K media and MCF-7 and A549 cells in low glucose DMEM supplemented with 10% (v/v) Fetal bovine serum (Life Technologies, USA); at 37° C. and 5% CO2 in humidified incubator. Cells were seeded 24 h before transfection in 24-well plates. Nanocomplexes were prepared with final DNA concentration of 20 ng/μl and incubated for 1 h at room temperature. 100 μl of nanocomplex was added to cells at ˜70% confluency in serum-free media (OptiMEM, Invitrogen). After 5 h of incubation at 37° C. and 5% CO2 in humidified incubator, the media was aspirated; cells were washed with phosphate buffered saline (PBS, pH 7.4) and supplemented with 500 μl of complete growth medium. After 24 h, cells were washed with PBS and lysed with 100 μl of cell culture lysis buffer (1×CCLR, Promega). Luciferase expression was measured in 50 μl of cell lysate supernatant using the luciferase assay substrate (Promega). Light emission was measured by integration over 1 Os in Orion microplate luminometer (Berthold Detection System, Germany). Luciferase activity was normalized with total protein content of the cells estimated using BCA protein assay (Pierce).
CHO-K1 cells were maintained in Ham's F-12K media and MCF-7 and A549 cells in low glucose DMEM supplemented with 10% (v/v) Fetal bovine serum (Life Technologies, USA); at 37° C. and 5% CO2 in humidified incubator. Cells were seeded 24 h before transfection in 24-well plates. A plasmid (pMIR-Report™ Luciferase) containing luciferase gene was complexed with the peptide and transfected to the cell. The nanocomplexes were made at different charge ratios and transfected in a wide range of cell lines. Nanocomplexes were prepared with final DNA concentration of 20 ng/μl and incubated for 1 h at room temperature. 100 μl of nanocomplex was added to cells at 70% confluency in serum-free media (OptiMEM, Invitrogen). Cellfectin, Superfect and Lipofectamine2000 used as manufacturer protocol. In case of transfection in presence of serum, nanocomplexes were added in complete media. […] Luciferase expression was measured in 50 μl of cell lysate supernatant using the luciferase assay substrate (Promega). Light emission was measured by integration over 10 s in Orion micro plate luminometer (Berthold Detection System, Germany). […]

[6] = tested on: MCF-7; assay: Luciferase transfection efficiency in MCF-7 cells; format: cell-based; details: MCF-7, charge ratio 5
Source text: as §2, §3

Sequence: CLLYWFRRRHRHHRRRHRRC [Mgpe-10, Mgpe-4 with a cysteine residue at each end]
- small RNA delivery [1]: found to show small RNA delivery
- uptake of the small RNA (fluorescence positive cells) [1]: ~100%
- PDI [2]: 0.206 ± 0.004
- Zeta potential(mV) [2]: 57.6 ± 3.2 mV
- Size (nm) [2]: 66.2 ± 0.7 nm

Sequence: CRRLRHLRHHYRRRWHRFRC [Mgpe-9, Mgpe-3 with a cysteine residue at each end]
- transfection efficiency in presence of serum [3]: up to 10^7 RLU/mg protein
- small RNA delivery [1]: found to show small RNA delivery
- uptake of the small RNA (fluorescence positive cells) [1]: ~100%
- transfection efficiency (luciferase) [4]: more than 10^6 RLU/mg protein
- PDI [2]: 0.169 ± 0.002
- Zeta potential(mV) [2]: 43.4 ± 0.1 mV
- Size (nm) [2]: 75.8 ± 3.8 nm
- transfection efficiency compared with Cellfectin, Superfect and Lipofectamine 2000 ([5]; CHO-K1, charge ratio 5): higher or equal transfection efficiency; also recorded: highest transfection efficiency
- transfection efficiency (luciferase) ([5]; CHO-K1, charge ratio 5, plasmid DNA non-covalently complexed): more than 10^8 RLU/mg protein
- transfection efficiency (luciferase) [6]: more than 10^8 RLU/mg protein

Sequence: LLYWFRRRHRHHRRRHRR [Mgpe-4, primary amphipathic peptide by rearrangement of the amino acids of Mgpe-3]
- PDI [2]: 0.155 ± 0.010
- Zeta potential(mV) [2]: 25.4 ± 0.2 mV
- Size (nm) [2]: 62.8 ± 7.0 nm
- transfection efficiency compared with Cellfectin and Superfect ([5]; CHO-K1, charge ratio 5): higher or equal transfection efficiency

Sequence: RRLRHLRHHYRRRWHRFR [Mgpe-3]
- PDI [2]: 0.152 ± 0.014
- Zeta potential(mV) [2]: 33.5 ± 5.9 mV
- Size (nm) [2]: 63.2 ± 4.5 nm
- transfection efficiency compared with Cellfectin and Superfect ([5]; CHO-K1, charge ratio 10): higher or equal transfection efficiency

Sequence: SRLSHLRHHYSKKWHRFR (listed as Homo sapiens) [Mgpe-1, 18 mer amphipathic peptide derived from Human Protein phosphatase 1E; tested as nanocomplex with plasmid DNA]
- PDI [2]: 0.151 ± 0.031
- Zeta potential(mV) [2]: 36.5 ± 0.8 mV
- Size (nm) [2]: 80.1 ± 7.3 nm
